{
  "source": "patent US20230123148A1",
  "about": "“TARGETING QUORUM-SENSING PEPTIDES FOR DIAGNOSIS, TREATMENT AND/OR PREVENTION OF COLORECTAL CANCER METASTASIS” (UNIVERSITEIT GENT, priority 2020, published 2023)",
  "key": {"CXCR4 receptor": {"target": "T1, CXCR4 receptor (Homo sapiens, UniProt P61073)", "T1 construct": "endogenous in cells; host or cells: luciferase transfected HCT-8/E11 cells", "T1 sequence (P61073 whole entry)": "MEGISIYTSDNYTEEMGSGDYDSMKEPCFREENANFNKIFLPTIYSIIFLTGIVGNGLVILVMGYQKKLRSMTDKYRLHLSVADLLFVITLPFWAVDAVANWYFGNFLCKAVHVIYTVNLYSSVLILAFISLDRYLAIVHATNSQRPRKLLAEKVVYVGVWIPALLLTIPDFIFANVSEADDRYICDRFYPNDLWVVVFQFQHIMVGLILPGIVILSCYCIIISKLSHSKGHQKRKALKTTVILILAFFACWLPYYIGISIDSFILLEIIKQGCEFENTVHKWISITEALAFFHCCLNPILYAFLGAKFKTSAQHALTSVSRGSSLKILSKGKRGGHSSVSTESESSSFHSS", "test": "Antagonism of the E-cadherin reducing effect of QSP76 (Western blot, HCT-8 cells)", "assay_type": "cell-based", "settings": "for relative E-cadherin expression: PBS = 100%", "description": "Western Blot analyses. 1×10^6 luciferase transfected HCT-8/E11 cells were seeded in each well of a 6-well plate. […] After 24 hours, cells were detached from the surface and lysed with Thermo Scientific RIPA-buffer. The protein concentration was then determined using the modified Lowry protein assay kit, according to the manufacturer's instructions. All samples were diluted to the same concentration (i.e. 4 μg/μL) using water and diluted 1:1 using 2× Laemmli buffer. Next, the samples were boiled for 5 min at 95° C. for denaturation, after which centrifugation for 5 min at 16,000 g was performed; the supernatant was then used for Western blot analyses. Therefore, proteins (20 μg) were separated using a Bio-Rad Any kD gel (SDS-PAGE) and transferred to a PVDF membrane. Before the membranes were incubated with antibodies, non-specific binding sites were blocked using 5% skimmed milk solution (1 hour). Western blot was performed using an anti-E-cadherin (1/1000) antibody and incubated overnight at 4° C. Signal intensity was normalized against the total protein content in the lanes. Anti-rabbit-HRP antibody was used for detection (1/2000) (1 hour). Finally, the substrate (5 min) was added and the results were analyzed using the Bio-Rad ChemiDoc EZ imager and Image Lab software. TBS buffer with 0.05% Tween 20 was used for washing between the different steps."}, "[1]": {"test_system": "luciferase transfected HCT-8/E11 cells", "test": "Orthotopic colorectal cancer mouse model", "assay_type": "in vivo, female athymic nude mice (Swiss nu/nu)", "description": "Orthotopic colorectal cancer mouse model. All in vivo experiments were performed according to the Ethical Committee principles of laboratory animal welfare and approved by our institute (Ghent University, Faculty of Medicine and Health Sciences, approval number ECD 17-90). Mice were maintained in a sterile environment with light, humidity and temperature control (light-dark cycle with light from 7:00 h to 17:00 h, temperature 21-25° C. and humidity 45-65%). Before the experiment, mice were allowed to acclimatize for a minimum of seven days.\nSix-weeks old female athymic nude mice (Swiss nu/nu) were anesthetized and a small midline laparotomy executed to localize the caecum. The caecum was then gently exteriorized and luciferase transfected HCT-8/E11 cells (1×10^6 cells) in a volume of 20 μL serum-free DMEM medium with matrigel (1:1) injected into the caecal wall. Cells were previously treated with EntF* (10 nM, 100 nM or 1 μM), Phr0662 (100 nM) or with the vehicle (PBS) or positive control (Transforming Growth Factor α (TGFα), 0.1 μg mL^−1) solution for 5 days before they were implanted in the mice. The caecum was then carefully returned to the abdominal cavity and the laparotomy closed in two layers by sutures of PDS 6/0. Starting from the day after tumour cell injection, mice were daily treated by i.p. injection with vehicle (PBS, n=15), EntF* (10 nmol kg^−1, n=12; 100 nmol kg^−1, n=18; 1 μmol kg^−1, n=8), Phr0662 (100 nmol kg^−1, n=5) or positive control (Epidermal Growth Factor (EGF), 100 μg kg^−1, n=18) for 6 weeks. Once a week, mice were investigated for tumour growth and metastases using bioluminescent imaging with the IVIS Lumina II (Perkin Elmer, Belgium) after i.p. injection with 200 μL luciferin (150 mg kg^−1). After 6 weeks, mice were euthanized using cervical dislocation, followed by macroscopic evaluation of the liver, diaphragm, lungs, caecum, duodenum and peritoneum for the presence of tumour nodules. Liver and lung tissues were then fixed in formalin during 24 h and stored in 70% ethanol for max. 3 days before embedding in paraffin. Afterwards, a haematoxylin & eosin (H&E) staining was performed on 8 μm sections and 3 sections were visualized per mouse using microscopy. The slides of all tumour-bearing mice were scored by two blinded, independent investigators using a scoring system. In the case of a difference in scoring, the slide was scored again by a third blinded, independent investigator for consensus.\nStatistical analyses. The Kolmogorov-Smirnov test was used to assess if data obtained were normally distributed. For sample sizes of n<10, non-parametric tests (Mann-Whitney U test) were performed directly. Slope comparison was based on linear regression analysis. Bootstrapped medians and Hedges G-values were used to calculate the effect size."}, "HCT-8 CRC cells": {"test_system": "HCT-8 CRC cells", "settings": "cited from earlier work"}, "[2]": {"settings": "after 6 weeks daily i.p. treatment"}},
  "data": [
    {"substance": "SNLVECVFSLFKKCN (SNLVECVFSLKKCN; EntF metabolite) [EntF*]", "values": [
      {"measurement": "relative E-cadherin expression", "setting": "CXCR4 receptor; QSP76 alone, HCT-8 cells", "value": 66.0, "unit": "%"}
    ]},
    {"substance": "ANLVECVFSLFKKCN (QSP76S1A) [EntF* antagonist]", "values": [
      {"measurement": "antagonistic effect on the in vitro pro-metastatic (E-cadherin reducing) effect of QSP76", "setting": "CXCR4 receptor; HCT-8 cells", "value": "reduces"},
      {"measurement": "relative E-cadherin expression", "setting": "CXCR4 receptor; mixture of antagonist with 5 μM EntF* (QSP76), HCT-8 cells", "value": 91.8, "unit": "%"},
      {"measurement": "Cohen's d effect size of normalisation in E-cadherin expression", "setting": "CXCR4 receptor; mixture with QSP76 versus QSP76 alone", "value": 0.77}
    ]},
    {"substance": "Epidermal Growth Factor [EGF]", "values": [
      {"measurement": "bioluminescence, Bootstrapped median difference (effect size, increase vs PBS)", "setting": "[1]; [2]", "value": 316, "unit": "%"},
      {"measurement": "bioluminescence, Hedges' g value (vs PBS)", "setting": "[1]; [2]", "value": 0.7},
      {"measurement": "bioluminescence, Median", "setting": "[1]; [2]", "value": 630},
      {"measurement": "increase in the number of nodules on the caecum compared to PBS", "setting": "[1]; after 6 weeks treatment", "value": 4.5, "unit": "fold"},
      {"measurement": "number of nodules on the caecum, Hedges' g value (vs PBS)", "setting": "[1]; after 6 weeks treatment", "value": 0.8},
      {"measurement": "number of nodules on the caecum, Median", "setting": "[1]; after 6 weeks treatment", "value": 14},
      {"measurement": "number of nodules on the caecum, Bootstrapped median difference", "setting": "[1]; after 6 weeks treatment, vs PBS", "value": 9},
      {"measurement": "tumour growth (luciferase activity, bioluminescent imaging) compared to vehicle", "setting": "[1]; weekly imaging during 6 weeks, linear regression slope comparison", "value": "significant increase of tumour growth"}
    ]},
    {"substance": "ERNNT [Phr0662]", "values": [
      {"measurement": "in vivo metastasis-promoting effect", "setting": "[1]; daily i.p. for 6 weeks", "value": "no in vivo metastasis-promoting effects"},
      {"measurement": "promotion of angiogenesis and/or tumour cell invasion in vitro", "setting": "HCT-8 CRC cells", "value": "promote in vitro cell invasion"}
    ]}
  ]
}
